Experimental data: US20030166692A1, “Composition useful as anticancer drug and radiosensitizer” (PHARMGENIA CO., LTD. of Developmental Genetics Laboratory,, priority 2002, published 2003)

Experiments:
[1] = test system: human SNU638 gastric cancer cell line; test: MTT survival of SNU638 cancer cells after treatment with the compound of formula I; format: cell-based; settings: for The survival rate of cancer cells: MTT, relative to DMSO control
Experimental: (§1) In this Example, the effect of the compound of formula I as an anticancer agent was evaluated in vitro using human NCI-H460 and SNU638 cancer cell lines.
(§2) The inventor purchased the compound of formula I from ChemBridge Corporation (San Diego, Calif.). Human NCI-H460 lung cancer cell line was obtained from ATCC (American Type Culture Collection), while human SNU638 gastric cancer cell line from KCLB (Korean Cell Line Bank).
(§3) Under […] at 37° C., the human NCI-H460 and SNU638 cancer cell lines were incubated for 4 days in RPMI1640 culture medium (GIBCO/BRL, Grand Island, N.Y.) containing 10% calf fetus serum, penicillin 100 units/ml, and streptomycin 100 μg/ml.
In the case of the SNU638 cell line, the compound of formula I was dissolved in DMSO in order to make its concentration 1 ng/ml, 10 ng/ml, 100 ng/ml, 1,000 ng/ml and 10,000 ng/ml, respectively. During incubation, the SNU638 cells were treated with each concentration of the compound of formula I, respectively.
(§4) Then, any surviving cancer cells were dyed with MTT [3-(4,5-dimethylthiazol-2-yl)-2,5-diphenyltetrazolium bromide] and quantified at 540 nm with a microplate reader.
(§5) Following Tables 1 and 2, and FIGS. 1 and 2, respectively show the survival rate of cancer cells, based on relative absorbance rate in reference to control (i.e. cancer cells treated with DMSO only). […] When treated with 1,000 ng/ml of the compound of formula I, about 80% (in the case of the NCI-H460 cell line) and 94% (in the case of the SNU638 cell line) of cancer cells were killed.

[2] = test system: NCI-H460 cells transplanted into mice; test: Tumor volume of NCI-H460 cells transplanted into mice; format: in vivo
Experimental: Six (6) week old mice of BALB/cAnNCrj-nu/nu strain, which were obtained from Chales River Japan Inc. (Japan), were subcutaneously injected lung cancer cells (NCI-H460 cell line, 5×10^6 cells) to develop tumors.
Mice were selected whose tumor volume reached 120 mm^3, and subdivided into 4 groups each having 5 mice: Group 1 (control, treated with DMSO); Group 2 (treated only with 10 mg/kg of the compound of formula I); Group 3 (treated only with 5 Gy of irradiation); and Group 4 (treated with 10 mg/kg of the compound of formula I and 5 Gy of irradiation).
Five (5) times with 5 day intervals between each time, DMSO or the compound of formula I was subcutaneously injected to the mice of Groups 1, 2 and 4, and γ-rays were irradiated to the mice of Groups 3 and 4.
The compound of formula I was dissolved in DMSO to make its concentration 5 mg/ml. 40 μl of DMSO and the compound of formula I each were administered to Groups 1, 2 and 4, respectively. The mice of Group 4 were subcutaneously injected with the compound of formula I, and 4 hours later followed by irradiation. The change of tumor volume in each Group was observed 11 times with 3 to 5 days of interval for 42 days.

[3] = test system: human NCI-H460 lung cancer cell line; test: MTT survival of NCI-H460 cancer cells after treatment with the compound of formula I; format: cell-based; settings: for The survival rate of cancer cells: MTT, relative to DMSO control
Experimental: as §1, §2, §3
In the case of the NCI-H460 cell line, the compound of formula I was dissolved in DMSO (dimethyl sulfoxide) in order to make its concentration 0.1 ng/ml, 1 ng/ml, 10 ng/ml, 100 ng/ml, 1,000 ng/ml and 10,000 ng/ml, respectively. During incubation, the NCI-H460 cells were treated with each concentration of the compound of formula I, respectively.
as §4, §5

[4] = test system: human A549 lung cancer cell line; test: Colony formation of A549 cells, compound followed by γ-irradiation; format: cell-based; settings: for The survival rate of cancer cells (combination therapy): colony formation vs un-irradiated compound-treated cells
Experimental: (§6) Using the same method as described in Example 1, human A549 and NCI-H460 lung cancer cell lines (obtained from ATCC) were incubated in RPMI1640 culture medium.
(§7) Then, cancer cells were collected and placed into 60 mm (in diameter) petri dishes, 300 cells per petri dish. After the cancer cells were incubated in water-containing CO2 incubator at 37° C. for 24 hours, 1 ng/ml and 0.1 ng/ml of the compound of formula I dissolved in DMSO were treated to human NCI-H460 and A549 cells, respectively. Four (4) hours later, the cancer cells were irradiated with a different amount of γ-rays using ^137Cs γ-rays source (Atomic Energy of Canada, Ltd., Canada). After cultivated for 10 days, the colonies were dyed with 1% methylene blue. Colonies having diameters of 200 μm or more were counted using Colony Counter (Imaging Products, Chantilly, Va.).
(§8) The results regarding colony formation are shown in the following Tables 3 and 4, and FIGS. 3 and 4.

[5] = test system: human NCI-H460 lung cancer cell line; test: Colony formation of NCI-H460 cells, compound followed by γ-irradiation; format: cell-based; settings: for The survival rate of cancer cells (combination therapy): colony formation vs un-irradiated compound-treated cells
Experimental: as §6, §7, §8

Question: What does the source list for `CSC(=S)N/N=C(\c1ccccc1)c1ccccn1` [compound of formula I, N′-(phenyl-pyridin-2-yl-methylene)-hydrazine carbodithioic acid methyl ester]?
Answer: cancer cells killed ([1]; 1 ng/ml): ~35%; The survival rate of cancer cells ([1]; 1 ng/ml): 64.46%; The survival rate of cancer cells ([1]; 10 ng/ml): 53.22%; The survival rate of cancer cells ([1]; 100 ng/ml): 46.41%; cancer cells killed ([1]; 1,000 ng/ml): ~94%; The survival rate of cancer cells ([1]; 1,000 ng/ml): 5.71%; The survival rate of cancer cells ([1]; 10,000 ng/ml): 3.87%; tumor volume ([2]; Combination: 10 mg/kg s.c. + 5 Gy irradiation, 10 days): 133 mm^3; tumor volume ([2]; Combination: 10 mg/kg s.c. + 5 Gy irradiation, 13 days): 268 mm^3; tumor volume ([2]; Combination: 10 mg/kg s.c. + 5 Gy irradiation, 18 days): 379 mm^3; tumor volume ([2]; Combination: 10 mg/kg s.c. + 5 Gy irradiation, 21 days): 539 mm^3; tumor volume ([2]; Combination: 10 mg/kg s.c. + 5 Gy irradiation, 24 days): 710 mm^3; tumor volume ([2]; Combination: 10 mg/kg s.c. + 5 Gy irradiation, 26 days): 760 mm^3; tumor volume ([2]; Combination: 10 mg/kg s.c. + 5 Gy irradiation, 29 days): 862 mm^3; tumor volume ([2]; Combination: 10 mg/kg s.c. + 5 Gy irradiation, 33 days): 950 mm^3; tumor volume ([2]; Combination: 10 mg/kg s.c. + 5 Gy irradiation, 36 days): 1,086 mm^3; tumor volume ([2]; Combination: 10 mg/kg s.c. + 5 Gy irradiation, 39 days): 1,079 mm^3; tumor volume ([2]; Combination: 10 mg/kg s.c. + 5 Gy irradiation, 42 days): 1,164 mm^3; increase rate of the tumor volume ([2]; Group 2 (compound only, 10 mg/kg) vs Group 1 (control)): much lower than in Group 1; increase in tumor volume ([2]; Group 4 (compound + 5 Gy irradiation) compared to Group 3 (irradiation only)): little increase in tumor volume; tumor volume ([2]; compound only, 10 mg/kg s.c., 10 days): 179 mm^3; tumor volume ([2]; compound only, 10 mg/kg s.c., 13 days): 258 mm^3; tumor volume ([2]; compound only, 10 mg/kg s.c., 18 days): 614 mm^3; tumor volume ([2]; compound only, 10 mg/kg s.c., 21 days): 923 mm^3; tumor volume ([2]; compound only, 10 mg/kg s.c., 24 days): 1,274 mm^3; tumor volume ([2]; compound only, 10 mg/kg s.c., 26 days): 1,766 mm^3; tumor volume ([2]; compound only, 10 mg/kg s.c., 29 days): 2,211 mm^3; tumor volume ([2]; compound only, 10 mg/kg s.c., 33 days): 2,759 mm^3; tumor volume ([2]; compound only, 10 mg/kg s.c., 36 days): 3,374 mm^3; tumor volume ([2]; compound only, 10 mg/kg s.c., 39 days): 3,787 mm^3; tumor volume ([2]; compound only, 10 mg/kg s.c., 42 days): 4,133 mm^3; The survival rate of cancer cells ([3]; 0.1 ng/ml): 90.2%; cancer cells killed ([3]; 1 ng/ml): about 12%; The survival rate of cancer cells ([3]; 1 ng/ml): 87.7%; The survival rate of cancer cells ([3]; 10 ng/ml): 51.3%; The survival rate of cancer cells ([3]; 100 ng/ml): 36.6%; cancer cells killed ([3]; 1,000 ng/ml): about 80%; The survival rate of cancer cells ([3]; 1,000 ng/ml): 20%; The survival rate of cancer cells ([3]; 10,000 ng/ml): 2%; The survival rate of cancer cells (combination therapy) ([4]; 0.1 ng/ml compound then 1 Gy): 53%; The survival rate of cancer cells (combination therapy) ([4]; 0.1 ng/ml compound then 3 Gy): 10%; The survival rate of cancer cells (combination therapy) ([4]; 0.1 ng/ml compound then 5 Gy): 2%; The survival rate of cancer cells (combination therapy) ([4]; 0.1 ng/ml compound then 7 Gy): 1%; cancer cells killed ([4]; 0.1 ng/ml followed by 1 Gy, in comparison with 0.1 ng/ml and no irradiation): 47%; increased anticancer effect in comparison with 1 Gy of irradiation only ([4]; 0.1 ng/ml in combination with 1 Gy): 32%; radio-enhanced cancer treatment effect ([4]; 1 Gy or more irradiated, 0.1 ng/ml): significantly effective; The survival rate of cancer cells (combination therapy) ([5]; 1 ng/ml compound then 1 Gy): 37.5%; The survival rate of cancer cells (combination therapy) ([5]; 1 ng/ml compound then 3 Gy): 9%; The survival rate of cancer cells (combination therapy) ([5]; 1 ng/ml compound then 5 Gy): 1%; The survival rate of cancer cells (combination therapy) ([5]; 1 ng/ml compound then 7 Gy): 0.01%; cancer cells killed ([5]; 1 ng/ml followed by 1 Gy, in comparison with 1 ng/ml and no irradiation): 62.5%; enhanced anticancer effect in comparison with 1 Gy of irradiation ([5]; 1 ng/ml in combination with 1 Gy): 27.5%; radio-enhanced cancer treatment effect ([5]; 1 Gy or more irradiated, 1 ng/ml): significantly effective
